What all share (format): functional
Assay [1] concerns Staphylococcus aureus. The assay can be described thus: Antibacterial activity against methicillin-resistan Staphylococcus aureus ATCC 33591 by NCCLS method.
For assay [2], the system named is Bacillus cereus. The assay can be described thus: Antibacterial activity against Bacillus cereus ATCC 11778 by NCCLS method.
Assay [3] deals with Bacillus subtilis. The assay can be described thus: Antibacterial activity against Bacillus subtilis ATCC 23857 by NCCLS method.
Assay [4] relates to Staphylococcus aureus. The assay can be described thus: Antibacterial activity against multi-drug resistant Staphylococcus aureus BAA-39 by NCCLS method.
The test system of assay [5] is Staphylococcus aureus. The assay can be described thus: Antibacterial activity against Staphylococcus aureus ATCC 29213 by NCCLS method.
Assay [6] has as its system Streptococcus pneumoniae. The assay can be described thus: Antibacterial activity against Streptococcus pneumoniae ATCC 6301 by NCCLS method.
Assay [7] concerns Enterococcus faecium. The assay can be described thus: Antibacterial activity against vancomycin-resistant Enterococcus faecium ATCC 700221 by NCCLS method.
Assay [8] relates to Staphylococcus epidermidis. The assay can be described thus: Antibacterial activity against methicillin-resistan Staphylococcus epidermidis ATCC 51625 by NCCLS method.
Assay [9] relates to Enterococcus faecalis. The assay can be described thus: Antibacterial activity against vancomycin-resistant Enterococcus faecalis ATCC 51575 by NCCLS method.
Assay [10] relates to Clostridium perfringens. The assay can be described thus: Antibacterial activity against Clostridium perfringens ATCC 10388 by NCCLS method.
Assay [11] has as its system Bacteroides fragilis. The assay can be described thus: Antibacterial activity against Bacteroides fragilis ATCC 23745 by NCCLS method.
The test system of assay [12] is Staphylococcus epidermidis. The assay can be described thus: Antibacterial activity against Staphylococcus epidermidis ATCC 12228 by NCCLS method.

Structures are written as SMILES. In brackets after ≈: the same amount, converted by molar mass.

As usually defined, the MIC is the smallest concentration in the dilution series that meets the test's criterion for growth inhibition.

As for `CC1(C)S[C@@H]2[C@H](NC(=O)Cc3ccccc3)C(=O)N2[C@H]1C(=O)O` [PENICILLIN G], the MIC in assay [1] was above 32 µg/mL; in [2], above 4 µg/mL; in assay [3], below 0.06 µg/mL; in assay [4], above 32 µg/mL; in [5], 1 µg/mL (≈ 2.99 µM); in [6], below 0.06 µg/mL. Moreover, the MIC is above 32 µg/mL in assay [7]; 32 µg/mL (≈ 95.7 µM) in assay [8]; 4 µg/mL (≈ 12 µM) in [9]; at most 0.12 µg/mL in [10]; 4 µg/mL (≈ 12 µM) in assay [11]; 32 µg/mL (≈ 95.7 µM) in assay [12].

For the origin of these results see ChEMBL document CHEMBL1137006, “Optimization of the central linker of dicationic bis-benzimidazole anti-MRSA and anti-VRE agents” (2009).
